Measured values: ChEMBL document CHEMBL1629524, “2-Azetidinone--a new profile of various pharmacological activities” (Eur J Med Chem, 2010)
Values after ≈ are worked out from the molar mass of the structure shown. Each block holds one compound with its values, some of them ahead of it.

Key:
Pseudomonas aeruginosa = assay: Antimicrobial activity against Pseudomonas aeruginosa ATCC 10145; assay type: functional
Chymase = biological target: T1, Chymase (Homo sapiens, UniProt P23946); assay: Inhibition of human Chymase
T1 sequence (P23946 whole entry): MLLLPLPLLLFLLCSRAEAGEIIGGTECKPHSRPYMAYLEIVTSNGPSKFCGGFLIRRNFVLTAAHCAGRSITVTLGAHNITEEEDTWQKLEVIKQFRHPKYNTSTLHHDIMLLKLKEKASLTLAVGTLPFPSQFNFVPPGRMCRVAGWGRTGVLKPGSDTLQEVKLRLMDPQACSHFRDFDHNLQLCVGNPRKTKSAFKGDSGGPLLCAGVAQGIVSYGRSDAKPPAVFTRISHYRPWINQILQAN

[1] = Inhibition of bovine brain tubulin polymerization; design: species or system Bos taurus
Neutrophil elastase = biological target: T2, Neutrophil elastase (Homo sapiens, UniProt P08246); assay: Inhibition of human leukocyte elastase
T2 sequence (P08246 whole entry): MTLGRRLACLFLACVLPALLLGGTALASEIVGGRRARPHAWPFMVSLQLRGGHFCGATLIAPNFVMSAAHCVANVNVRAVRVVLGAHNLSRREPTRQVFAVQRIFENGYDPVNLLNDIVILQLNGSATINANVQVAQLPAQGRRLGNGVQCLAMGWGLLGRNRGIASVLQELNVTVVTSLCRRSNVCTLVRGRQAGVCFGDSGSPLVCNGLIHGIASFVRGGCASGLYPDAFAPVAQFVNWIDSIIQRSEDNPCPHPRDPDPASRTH

[2] = Inhibition of human cytomegalovirus protease; design: species or system Human betaherpesvirus 5
[3] = Chemical stability of the compound in human plasma assessed as half life; assay type: ADME, cell-free
[4] = biological target: 72 kDa type IV collagenase (Homo sapiens, UniProt P08253); assay: Inhibition of MMP2
Sequence of 72 kDa type IV collagenase (P08253 whole entry): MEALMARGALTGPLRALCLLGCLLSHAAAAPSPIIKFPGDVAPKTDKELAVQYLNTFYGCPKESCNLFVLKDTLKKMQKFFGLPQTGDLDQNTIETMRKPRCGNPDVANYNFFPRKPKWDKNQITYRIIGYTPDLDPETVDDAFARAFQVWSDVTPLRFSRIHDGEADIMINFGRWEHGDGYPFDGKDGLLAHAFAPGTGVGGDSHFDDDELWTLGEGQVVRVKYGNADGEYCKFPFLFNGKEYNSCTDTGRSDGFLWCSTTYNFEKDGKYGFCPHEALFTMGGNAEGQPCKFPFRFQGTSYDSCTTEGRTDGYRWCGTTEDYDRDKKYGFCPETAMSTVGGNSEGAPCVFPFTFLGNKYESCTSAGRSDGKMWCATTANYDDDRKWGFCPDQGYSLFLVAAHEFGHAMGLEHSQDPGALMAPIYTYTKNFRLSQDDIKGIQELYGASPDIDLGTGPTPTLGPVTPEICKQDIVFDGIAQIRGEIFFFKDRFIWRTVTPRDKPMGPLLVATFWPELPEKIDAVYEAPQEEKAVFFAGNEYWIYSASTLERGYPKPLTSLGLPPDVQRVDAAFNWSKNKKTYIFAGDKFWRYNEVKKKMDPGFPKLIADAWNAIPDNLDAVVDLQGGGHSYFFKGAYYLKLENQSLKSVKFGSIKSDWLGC

[5] = Inhibition of human Tryptase
Rhesus monkey = assay: Antidyslipidemic activity in cholesterol-fed rhesus monkey assessed as reduction in plasma cholesterol; assay type: functional; settings: Macaca mulatta
Hamster [6] = assay: Antidyslipidemic activity in cholesterol-fed hamster model assessed as reduction in liver cholesteryl esters; assay type: functional; settings: Cricetinae
Canis familiaris = species: Canis familiaris; assay: Antidyslipidemic activity in cholesterol-fed Dog assessed as reduction in plasma cholesterol level; assay type: functional; settings: Canis lupus familiaris
Hamster [7] = assay: Antidyslipidemic activity in hamster assessed as reduction in hepatic cholesteryl esters; assay type: functional; settings: Cricetinae
Hamster [8] = assay: Antidyslipidemic activity in cholesterol-fed hamster assessed as reduction in plasma cholesterol; assay type: functional; settings: Cricetinae
Rattus norvegicus = species: Rattus norvegicus; assay: Antidyslipidemic activity in cholesterol-fed rat assessed as reduction in plasma cholesterol; assay type: functional
[9] = Antidyslipidemic activity in rat hepatic microsomes assessed as inhibition of […]; assay type: functional, Liver
HepG2 = assay: Antidyslipidemic activity in human HepG2 cells assessed as inhibition of cholesterol esterification; assay type: functional, cell-based
Caco-2 = assay: Antidyslipidemic activity in human Caco2 cells assessed as inhibition of cholesterol esterification; assay type: functional, cell-based

SMILES: C[C@@H](NC(=O)N1C(=O)[C@@H](Cc2ccccc2)[C@H]1Oc1ccc(N2CCN(C)CC2)cc1)c1ccccc1
IC50 (Chymase): 0.46 nM

SMILES: CCOC(=O)/C=C1\[C@@H](C(C)O[Si](C)(C)C(C)(C)C)C(=O)N1C(=O)c1cc(OCc2ccccc2)c(OCc2ccccc2)c(OCc2ccccc2)c1 (stereo partly specified)
IC50 (Neutrophil elastase): 500 nM

SMILES: CC[C@@H](NC(=O)N1C(=O)CC1SC[C@H](CC(C)C)NC(=O)[C@@H](NC(=O)CC(C)(C)C)C(C)(C)C)c1ccccc1 (stereo partly specified)
IC50 [2]: 70 nM

SMILES: CCOc1ccccc1C[C@@H]1C(=O)N(C(=O)NC(c2ccccc2)c2ccccc2)[C@@H]1Oc1ccc(C(=O)O)cc1
IC50 (Chymase): 3.1 nM
half-life [3]: 360 min

SMILES: CCOC(=O)/C=C1\NC(=O)[C@@H]1[C@@H](C)OC(=O)c1cc(OCc2ccccc2)c(O)c(OCc2ccccc2)c1
IC50 [4]: 4 µM

SMILES: N=C(N)N1CCC[C@H](C[C@H]2C(=O)N(C(=O)N3CCN(C(=O)CCCCCc4ccccc4)CC3)[C@@H]2C(=O)O)C1
IC50 [5]: < 1.7 nM

SMILES: O=C(O)[C@@H]1[C@@H](CCC2CCCNC2)C(=O)N1C(=O)N1CCN(C(=O)CCCCCc2ccccc2)CC1 (stereo partly specified)
IC50 [5]: 1.8 nM

SMILES: N=C(N)N1CCC[C@@H](C[C@H]2C(=O)N(C(=O)N3CCN(C(=O)CCCCCc4ccccc4)CC3)[C@@H]2C(=O)O)C1
IC50 [5]: < 1.7 nM

SMILES: CC(C)(C)NC(=O)N1CCN(C(=O)N2C(=O)[C@H](CCCN=C(N)N)[C@H]2C(=O)O)CC1
IC50 [5]: 4 nM

SMILES: O=C1[C@H](CC[C@H](O)c2ccc(F)cc2)[C@@H](c2ccc(O)cc2)N1c1ccc(F)cc1 [EZETIMIBE]
ED50 (Rhesus monkey): 0.5 µg/kg
ED50 (Hamster [6]): 0.04 mg/kg/day
ED50 (Canis familiaris): 0.007 mg/kg/day

Second part, led by results:

MIC (Pseudomonas aeruginosa): 125 µg/mL (≈ 428 µM)
SMILES: O=C1N(c2ccccc2)C(c2ccccc2)C1(Cl)Cl (stereo unspecified)

MIC (Pseudomonas aeruginosa): 125 µg/mL (≈ 355 µM)
SMILES: COc1ccc(C2N(c3ccc(OC)cc3)C(=O)C2(Cl)Cl)cc1 (stereo unspecified)

MIC (Pseudomonas aeruginosa): 125 µg/mL (≈ 390 µM)
SMILES: Cc1ccc(C2N(c3ccc(C)cc3)C(=O)C2(Cl)Cl)cc1 (stereo unspecified)

MIC (Pseudomonas aeruginosa): 125 µg/mL (≈ 346 µM)
SMILES: O=C1N(c2ccc(Cl)cc2)C(c2ccc(Cl)cc2)C1(Cl)Cl (stereo unspecified)

MIC (Pseudomonas aeruginosa): 125 µg/mL (≈ 371 µM)
SMILES: O=C1N(c2ccccc2)C(c2ccc([N+](=O)[O-])cc2)C1(Cl)Cl (stereo unspecified)

IC50 [1]: 5 µM
SMILES: COc1ccc(C2C(O)C(=O)N2c2ccccc2)cc1N (stereo unspecified)

IC50 [9]: 26 µM
IC50 (HepG2): 22 µM
IC50 (Caco-2): 32 µM
SMILES: COc1ccc([C@@H]2[C@@H](CCCc3ccccc3)C(=O)N2c2ccc(OC)cc2)cc1 [SCH-48461]
ED50 (Hamster [7]): 2 mg/kg/day
ED50 (Hamster [8]): 1 mg/kg/day
ED50 (Rattus norvegicus): 2 mg/kg/day
ED50 (Rhesus monkey): 0.2 mg/kg/day
